The values below are quoted from earlier work in patent publication US11285148B1 (King Abdulaziz University, priority 2021, dated 2022).

The test system of the data set is yeast isolates obtained from cases of keratitis.

`CC(=O)N1CCN(c2ccc(OCC3COC(Cn4ccnc4)(c4ccc(Cl)cc4Cl)O3)cc2)CC1` (stereo not shown) [KET, Ketoconazole]: the Minimum inhibitory concentration was 0.015 to 0.125 µg/mL.
